Data published in article PMC8922279, “Identification of β-Lactams Active against Mycobacterium tuberculosis by a Consortium of Pharmaceutical Companies and Academic Institutions” (ACS Infectious Diseases, 2022).
Values after ≈ are worked out from the molar mass of the structure shown. Where two headings read alike, the source gives them in different places.

Legend:
[1] = in vivo; settings: DHP-1 knockout, mouse, sc, 300 mg/kg
[2] = in vitro; settings: SD, rat, plasma, Plasma stability % Remaining
[3] = test system: C. albicans; assay: Microbial spectrum, C. albicans; type: cell-based, Candida albicans
[4] = test system: S. aureus; assay: Microbial spectrum, S. aureus; type: cell-based, Staphylococcus aureus
[5] = 300 mg/kg sc, uninfected DHP-1 mice
[6] = in vitro; settings: monkey, plasma
[7] = 2 h, 2 μM
[8] = physchem; settings: simulated gi fluid, pH 1.2
[9] = test system: plasma proteins; settings: 4 h, 2 μM, pH 7.4
[10] = in vitro; settings: human
[11] = in vitro; settings: cynomolgus monkey, plasma, pH 7.4
[12] = test system: plasma proteins; settings: 4 h, 2 μM, pH 7.4; remark: listed apart in the source
[13] = in vitro; settings: SD, rat, plasma, pH 7.4, % bound to plasma
[14] = test system: P. aeruginosa; assay: Microbial spectrum, P. aeruginosa; type: cell-based, Pseudomonas aeruginosa
[15] = in vivo; settings: female, CD-1, mouse
[16] = test system: plasma proteins; settings: 4 h, 2 μM, pH 7.4; remark: listed apart in the source
[17] = simulated gi fluid, 10 μM, pH 6.5
[18] = physchem; settings: simulated gi fluid, pH 6.5, FaSSIF Stability, % remaining
[19] = test system: Caco-2 cells
[20] = SD, 2 h, 2 μM
[21] = in vitro; settings: human, plasma, Plasma stability % Remaining
[22] = in vitro; settings: male, CD-1, mouse, plasma, Plasma stability % Remaining
[23] = test system: wild-type Mtb H37Rv; type: in vivo, 129sv DHP-1 knockout mice
[24] = test system: CYP2B6; type: in vitro ADME; settings: human, hepatocytes, 3 µM
Protocol: (§1) Metabolic stability and induction of human hepatocytes were performed as previously described.[71]

[25] = test system: CYP3A5; type: in vitro ADME; settings: human, hepatocytes, 3 µM
Protocol: as §1

[26] = test system: CYP1A2; type: in vitro ADME; settings: human, hepatocytes, 3 µM
Protocol: as §1

[27] = test system: Mtb H37Rv; assay: MIC90 against nonreplicating (NR, 4-stress) Mtb H37Rv, with or without clavulanate; type: cell-based, Mycobacterium tuberculosis; settings: 4-stress nonreplicating, Table S4
[28] = physchem; type: physicochemical; settings: thermodynamic from solid
Protocol: Compounds were prepared at 1 mg/mL and left overnight at room temperature with stirring in phosphate buffer, 50 mM, at pH 7.4 or in 0.1 N HCl at pH 1. After separation of the soluble fraction by centrifugation, samples were filtered onto a polytetrafluoroethylene […] filter (Millipore) and then analyzed by HPLC.

[29] = test system: WT Mtb H37Rv; assay: Colony-forming unit (CFU) assay, replicating WT Mtb H37Rv; type: cell-based, Mycobacterium tuberculosis
[30] = in vitro; settings: CD-1, mouse, plasma, pH 7.4, % bound to plasma
[31] = in vitro; settings: beagle, dog, plasma, pH 7.4
[32] = Metabolic stability, human; type: in vitro ADME
Protocol: as §1

[33] = male, CD-1, mouse, 2 h, 2 μM
[34] = female, 129sv DHP-1 knockout, mouse, in vivo

## O=C(Cc1ccc(C2=NCCN2)cc1)N[C@@H]1C(=O)N2C(C(=O)O)=C(CSc3nncs3)CS[C@H]12 [TBBL-0000316]
[1]
  AUC(0-t): 60200 ± 11400 ng·h/mL
  Cmax: 28700 ± 866 ng/mL
  Tmax: 60 to 120 min
[2]
  remaining at 2 h, 2 μM: 85.9%
[3]; Candida albicans, C. albicans
  MIC90: > 100 µM
[3]; no clavulanate, Table S4
  C.albicans R (MIC90): > 100 µM
[4]; Staphylococcus aureus, S. aureus, with 4 μg/mL clavulanate
  MIC90: 0.86 µM
[4]; clavulanate 4 μg/mL, Table S4
  S.aureus R + CLAV (MIC90): 0.9 µM
[5]
  Tlast: 2.0 to 4.0 h
[6]
  remaining at 2 h, 2 μM: 114%
[7]
  Plasma stability % Remaining, Human: 86%
[8]
  remaining at 1 h, 10 μM: 83.7%
  remaining at 24 h, 10 μM: 0.45%
[9]
  % bound to plasma, SD Rat: 62%
[10]; Caco-2, pH 7.4
  Papp A→B at 120 min, 3 μM: 0.31 ×10⁻⁶ cm/s
  Papp B→A at 120 min, 3 μM: 0.32 ×10⁻⁶ cm/s
  Papp at 120 min, 3 µM: 0.3 ×10⁻⁶ cm/s
  efflux ratio at 120 min, 3 μM: 1.06
[10]; Caco-2, pH 7.4, Caco-2 Mean Recovery % A to B
  recovery at 120 min, 3 μM: 104%
[10]; Caco-2, pH 7.4, Caco-2 Mean Recovery % B to A
  recovery at 120 min, 3 μM: 110%
[11]
  fraction unbound at 4 h, 2 μM: 0.335
[12]
  % bound to plasma, CD-1 Mouse: 18%
[13]
  fraction unbound at 4 h, 2 μM: 0.378
[14]; Pseudomonas aeruginosa, P. aeruginosa
  MIC90: > 100 µM
[14]; clavulanate 4 μg/mL, Table S4
  P.aeruginosa R + CLAV (MIC90): > 100 µM
[15]; iv, 5 mg/kg
  AUC(0-t): 37100 ng·h/mL
  Vd: 0.11 L/kg
  clearance: 2.25 mL/min/kg
  half-life: 34.8 min
  k el: 0.000333 s⁻¹
[15]; po, 25 mg/kg
  AUC(0-t): 542 ng·h/mL
  bioavailability: 0.3%
[16]
  % bound to plasma, Human: 38%
[17]; 6 h
  FaSSIF Stability, % remaining, 6h: 95%
[17]; 24 h
  FaSSIF Stability, % remaining, 24h: 84%
[18]; 6h
  remaining at 6 h, 10 μM: 94.7%
[18]; 24h
  remaining at 24 h, 10 μM: 84.2%
[19]
  Caco-2 Rank Papp: Low
  Efflux Transporter Substrate: Poor or no
[20]
  Plasma stability % Remaining, Rat: 86%
[21]
  remaining at 2 h, 2 μM: 86.1%
[22]
  remaining at 2 h, 2 μM: 88.5%
[23]; 50 mg/kg sc bid + clavulanate 100 mg/kg po bid, days 9-15, lungs day 16, untreated day 16 mean 9.1
  Log10 CFU per mouse (lungs), Mean: 8.2 Log10 CFU
[23]; mouse, in vivo
  reduction of lung CFU compared to untreated control mice: 0.9 log10
[24]
  induction of expression of CYP2B6: < 2 fold
[25]
  induction of expression of CYP3A5: < 2 fold
[26]
  induction of expression of CYP1A2: < 2 fold
[27]; clavulanate 4 μg/mL
  Mtb H37Rv NR + CLAV (MIC90): > 100 µM
[27]; no clavulanate
  Mtb H37Rv NR (MIC90): > 100 µM
[28]; pH 1, simulated gastric fluid
  solubility: 402 µg/mL (≈ 778 µM)
[28]; pH 7.4, aqueous buffer
  solubility: > 1000 µg/mL
[29]; daily dosing for 5 days with 4 μg/mL clavulanate, at ≥1 μM
  reduction in CFU: 3–4 log10
[29]; single dose at 10 μM, one-week exposure, 4 μg/mL clavulanate
  reduction in CFU: 3.5 log10
[30]
  fraction unbound at 4 h, 2 μM: 0.817
[31]
  fraction unbound at 4 h, 2 μM: 0.973
[32]
  metabolic stability: 5.4 μL/min/mg protein
  metabolic stability 1/2 life: 256 min
[33]
  Plasma stability % Remaining, Mouse: 89%
[34]
  Tlast: 6.0 h
